From US7476729B2, “Dbait and uses thereof” (Institut Curie, priority 2003, dated 2009) come the findings set out here.

“Also recorded” adds a separate entry of the source.

Data set [1] addresses T1, Ku complex (Homo sapiens, UniProt P12956+P13010).
T1 construct: in the presence of nuclear protein extracts from Hep2 cells according to standard protocol; endogenous in cells; host or cells: Hep2 cells (nuclear protein extract)
The data set can be described thus: Band-shift assay with Hep2 nuclear protein extracts. The conditions noted are these: 10 nM 32P radio-labelled Dbait, 0-320 ng/μL Hep2 nuclear proteins, 30° C., 10 minutes. Type of data set: binding. How it is done: As the first step to dissect the mechanism of action of Dbait molecules, a series of band-shift assays were carried out with different ^32P radio-labelled Dbait molecules in the presence of nuclear protein extracts from Hep2 cells according to standard protocol. Typically, 10 nM ^32P radio-labelled Dbait molecules were incubated in the presence of various concentrations of nuclear proteins (0, 10, 20, 40, 80, 160, and 320 ng/μL) at 30° C. for 10 minutes in TBE buffer. Then the samples were loaded on a 5% acrylamide native gel. The electrophoresis was run at 95V for 2 hours at 4° C. The gel was dried and scanned by phosphorimager (Molecular Dynamics).
For 32-bp Dbait molecules, the intensity of the retarded band 1 increases and then decreases as the concentration of protein increases, while the intensity of the retarded band 2 increases as a function of the concentration of nuclear protein extracts.
It is likely that band 1 has one Ku70/80 complex bound to the 16 to 32-bp Dbait, whereas the band 2 has two Ku70/80 complexes bound to the 32-bp Dbait molecules. Control experiments performed with purified Ku proteins confirmed this interpretation.

Data set [2] relates to GMA32 cells. Put plainly: FACS analysis of sub-G1 cells (cell death) in GMA32 cells. The conditions noted are these: GMA32, 4.5 μg Dbait with lipofectamine, no irradiation or mitotic inhibitor. Type of data set: cell-based, Chinese hamster. On the procedure: (§1) The GMA32 Chinese hamster fibroblast cells permissive of DNA breaks were maintained in MEM medium (Gibco) supplemented with 1 mM sodium pyruvate, 2 mM glutamine, 1×MEM non essential amino acids, 1× penicillin/streptomycin and 10% horse serum. Typically, 2×10^5 to 4×10^5 cells were seeded in medium without antibiotics, in 5 cm diameter Petri dishes 24 hours before the transfection of different Dbait molecules (4.5 μg) with lipofectamine 2000 (LifeTechnologies) as transfection agent (in a 1:3 ratio), according to the manufacturer's instructions. At the end of the transfection the cells were either irradiated (4 Gy) or treated with mitotic inhibitors: nocodazole (200 nM), navelbine (100 nM) or taxol (200 nM).
(§2) About 16 hour later the drug was removed and the cells were allowed to recover. Cell irradiation was performed with γ-rays from a ^137Cs source. After a 24 hours recovery, the cells were collected and used either for FACS, western blot analyses or to determine the clonogenicity (survival) and the effect of each treatment.
The M1 phase represents the percentage of cells in sub-G1 stage indicative of cell death.
The experiments were performed with a FACS calibur flow cytometer (Becton Dickinson). Cells were collected, suspended in 1 ml of cold GM buffer (6.5 mM glucose, 137 mM NaCl, 5.4 mM KCl, 2 mM Na2HPO4, 1 mM KHPO4, 0.5 mM EDTA), and stored at 4° C. for at least 2 hours after addition of 3 ml of cold 100% ethanol.
At that stage, cells were eventually washed with 1×PBS, then stained for 30 minutes at room temperature in PI solution (50 μg/ml propidium iodide, 25 μg/ml RNase A in 1×PBS buffer). 10,000 events were analyzed with Cellquest software, and cell aggregates were gated out. The percentage of cells with a sub-G1 content of DNA was scored.

The test system of data set [3] is γ-H2AX foci in GMA32 cells. The data set can be described thus: Immunodetection of γ-H2AX DSB foci in GMA32 cells. Type of data set: cell-based, Chinese hamster. The note with it: GMA32, Dbait with lipofectamine, no irradiation. On the procedure:
Under the same conditions, the immunodetection of DSB foci of γ-H2AX phosphorylated on serine 139 by γ-H2AX labeling (bright dots or patches in nuclei) was performed in the untreated GMA32 cells, the cells transfected alone, or transfected with different Dbait molecules by lipofectamine. The counterstaining of cell membranes and nuclei were achieved by FITC-DiOC6 and DAPI. Similar effects of Dbait molecules were observed (FIG. 3.2). […] This provides visual evidence that these Dbait molecules can be used for trapping proteins involved in DSB repair via NHEJ pathway.
For immunodetection, the cells were grown on coverslip in 5 cm diameter Petri dishes 24 hours before the transfection with different Dbait molecules. One day after the transfection, FITC-DiOC6 (Molecular probes) was added in the medium 5 minutes at 37° C. (to counterstain the membranes). After 3 washing cycles, the cells were fixated with 4% PFA for 20 minutes.
After additional washing, γ-H2AX phosphorylated on serine 139 (γ-H2AX) was detected with. rabbit anti-γ-H2AX antibody (4411-PC, Trevigen) diluted 1/100 in 1×PBS, 1% BSA. Cells were washed three times with 1×PBS, 0.5%, TritonX-100, then incubated for 1 hour at room temperature with goat anti-rabbit antibodies Alexa 594 (Molecular Probes) diluted 1/100 in 1×PBS, 1% BSA. Cells were visualized by epifluorescence microscopy.

The test system of data set [4] is p53 serine 15 phosphorylation in GMA32 cells. Put plainly: Western blot of p53 serine 15 phosphorylation in GMA32 cells. The format is cell-based, Chinese hamster. The note with it: GMA32, Dbait with lipofectamine, no irradiation or mitotic inhibitor. On the procedure:
Further experiment was carried out in order to look for evidence of DNA damage signaling. The protein p53 is a well known major protein in mediating DNA damage signaling and in coordinating appropriate responses (DNA repair, apoptosis, etc.) by changing its phosphorylation status. In particular, the phosphorylation of serine 15 residue is involved in the interaction with MDM2 protein which acts as a feed back control Thus, the phosphorylation status of the serine 15 of p53 was assessed by Western blot.
For Western blot analysis, cells were lysed in Laemmli buffer. Equal amounts of lysates were resolved in 12% polyacrylamide gels. Proteins were transferred to nitrocellulose membranes, which were blocked with 5% nonfat milk (1 hour) before overnight incubation with anti-p53Ser15 antibody (9284, Cell Signaling) diluted 500 folds in TBST buffer (10 mM Tris-HCl pH7.5, 150 mM NaCl, 0.1% Tween 20) containing 5% nonfat milk. Blots were then incubated with horseradish peroxidase-conjugated goat anti-rabbit IgG secondary antibodies (P0448, Dako) diluted 1/5000 in TBST. Protein-antibody complexes were detected by enhanced chemiluminescence (RPN2106 ECL, Amersham).
For orientation: In western blotting, separated proteins are transferred to a membrane and probed.

Data set [5] relates to GMA32 cells. The data set can be described thus: Clonogenicity (clonal survival) assay in GMA32 cells with irradiation or mitotic inhibitors. The format is cell-based, Chinese hamster. On the procedure:
as §1, §2
The effect of radiosensitization and chemosensitization of Dbait molecules in GMA32 cells was evaluated by clonogenicity (clonal survival) assay. For the clonogenicity assay, serial dilutions were made after counting the cells to seed 5 cm Petri dishes with different amounts of cells. The number of cells range from 100-200 (control cells) to 3000 (transfected or/and treated cells). Ten days after, the cells (forming clone) were fixed with 4% paraformaldehyde (20 minutes), then colored with methylene blue (15 minutes), and the number of clone in each plate (in triplicates) was scored.
These drugs are known as potent inhibitors of either polymerization or depolymerization of microtubules. Dbait32 (SEQ ID NO: 1) and Dait32H (SEQ ID NO: 1) were able to enhance to cytotoxic activity of these mitotic inhibitors.

For data set [6], the system named is γ-H2AX foci in Hela cells. Put plainly: Immunodetection of DSB sites (γ-H2AX foci) in Hela cells after irradiation. The format is cell-based, human. The note with it: 2 μg Dbait, two hours after 2 Gy irradiation. On the procedure: Transfection and irradiation protocoles were similar to those described above. For immunodetection, the cells were grown on surface coverslip in 5 cm diameter Petri dishes, transfected with 2 μg Dbait32H-FITC (SEQ ID NO: 1) molecules labeled with FITC with Superfect (Qiagene) according to the manufacturer's instruction. Four hours after the beginning of the transfection, cells were irradiated (2 Gy), then rest for 2 hours in the medium at 37° C. After 3 washing cycles, the cells were fixated with 2% PFA for 10 minutes. After one additional washings, the presence of γ-H2AX was detected with rabbit anti-γ-H2AX antibody (4411-PC, Trevigen) diluted 1/100 in 1×PBS, 1% BSA. Cells were washed three times with 1×PBS, 0.5% TritonX-100, then incubated for 1 hour at room temperature with rhodamine-conjugated goat anti-rabbit antibodies diluted 1/100 in 1×PBS, 1% BSA. Cells were visualized by epifluorescence microscopy.
Left panel: fluorescence of Dbait32H-FITC (SEQ ID NO: 1) (bright dots and patches) and DBS foci detected by immunofluorescence of γ-H2AX antibody in nuclei; Right panel: the same image of nuclei with DSB foci detected by immunofluorescence of γ-H2AX antibody and DAPI counterstaining. The arrows at the lower left corner show the absence of Dbait32H-FITC (SEQ ID NO: 1) and γ-H2AX signal in nucleus. […]

In data set [7] the test system is tumor tissues of K-Ras^V12G×Apc^1638N transgenic mouse. The data set can be described thus: Fluorescence microscopy of digestive tumor tissue of a treated transgenic mouse. The format is in vivo. The conditions noted are these: oral, with 5FU+CPT11 for three days, sacrificed two hours after the last treatment. How it is done:
Tumor samples prepared from animals treated with Dbait molecules tagged by fluorescein (Dbait32H-FITC) (SEQ ID NO: 1) and 5FU+CPT11 were analysed using immunofluorescence staining methods. γ-H2AX labeled foci were costained with fluorescent Dbait molecules, in reminiscence of the in vitro finding (cf. example 3.3 and 4). […] Then the tumor tissues were sampled and frozen at −80° C. For the analysis, 5 μm histological samples were made from the frozen tumor tissues by cryostat. DNA repair foci were detected by immunofluorescence with polyclonal rabbit anti-γ-H2AX antibody (Trevigen) diluted 1/500 in PBS, then with goat anti-rabbit antibody tagged by cyanine 3 (Jackson) diluted 1/200 in PBS. The samples were also counterstained by DAPI Samples were visualized by epifluorescence microscopy. […] Similar pattern was found for γ-H2AX sites (FIG. 5.3, panel B, right). The co-localized Dbait32H-FITC (SEQ ID NO: 1) and γ-H2AX signals were almost observed.

T1 sequence (P12956 whole entry): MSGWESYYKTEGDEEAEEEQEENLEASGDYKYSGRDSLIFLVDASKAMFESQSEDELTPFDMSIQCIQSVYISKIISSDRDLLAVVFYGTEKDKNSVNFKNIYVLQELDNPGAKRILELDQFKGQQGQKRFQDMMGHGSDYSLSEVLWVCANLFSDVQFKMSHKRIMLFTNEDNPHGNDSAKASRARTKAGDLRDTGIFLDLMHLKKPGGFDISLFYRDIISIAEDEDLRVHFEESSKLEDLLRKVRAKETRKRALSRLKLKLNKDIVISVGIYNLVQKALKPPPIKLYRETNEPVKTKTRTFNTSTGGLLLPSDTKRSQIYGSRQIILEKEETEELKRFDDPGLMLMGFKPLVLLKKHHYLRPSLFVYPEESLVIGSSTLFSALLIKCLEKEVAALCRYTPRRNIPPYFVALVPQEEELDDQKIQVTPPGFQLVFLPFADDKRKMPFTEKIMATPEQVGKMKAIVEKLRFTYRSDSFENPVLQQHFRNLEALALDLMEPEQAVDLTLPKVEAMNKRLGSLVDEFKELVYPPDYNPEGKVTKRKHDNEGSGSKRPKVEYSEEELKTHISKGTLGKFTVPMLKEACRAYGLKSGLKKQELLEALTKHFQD
T1 sequence (P13010 whole entry): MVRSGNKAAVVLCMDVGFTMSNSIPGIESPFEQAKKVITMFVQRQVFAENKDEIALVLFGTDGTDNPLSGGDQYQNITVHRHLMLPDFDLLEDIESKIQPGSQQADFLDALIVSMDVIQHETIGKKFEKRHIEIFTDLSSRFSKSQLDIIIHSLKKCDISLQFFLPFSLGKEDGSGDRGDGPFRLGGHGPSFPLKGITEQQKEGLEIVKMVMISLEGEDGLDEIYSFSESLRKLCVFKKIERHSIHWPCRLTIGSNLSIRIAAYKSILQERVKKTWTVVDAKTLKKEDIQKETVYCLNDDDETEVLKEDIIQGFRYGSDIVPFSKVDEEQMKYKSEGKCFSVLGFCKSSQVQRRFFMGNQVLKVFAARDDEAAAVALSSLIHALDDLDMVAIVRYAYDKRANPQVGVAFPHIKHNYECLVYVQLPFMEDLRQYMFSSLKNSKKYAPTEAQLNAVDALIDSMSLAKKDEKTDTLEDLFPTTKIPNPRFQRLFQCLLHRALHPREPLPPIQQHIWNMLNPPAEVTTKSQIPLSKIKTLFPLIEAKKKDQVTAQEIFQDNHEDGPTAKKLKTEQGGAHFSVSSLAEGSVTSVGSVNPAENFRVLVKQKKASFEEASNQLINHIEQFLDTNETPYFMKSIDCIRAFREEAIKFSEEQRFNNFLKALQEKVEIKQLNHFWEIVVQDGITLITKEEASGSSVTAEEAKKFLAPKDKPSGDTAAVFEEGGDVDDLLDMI

Consider “Dbait32: 32-bp linear double-stranded Dbait molecule (SEQ ID NO: 1) (ACGCACGGGTGTTGGGTCGTTTGTTCGGATCT; DNA, backbone not given here; linear DNA duplex, phosphorothioates at blunt ends, exact count not readable, further chemistry not fully specified)”, for which the “retarded bands in band-shift assay” value in data set [1] is “two retarded band”. Further, the “cell death (cells in sub-G1 stage)” value in data set [2] is on record as “Significant cell death”. In data set [3], the “γ-H2AX DSB foci (cell response)” value is given as “effectively trigger similar cell response as if DNA damages were occurred in nuclei”. Moreover, the “phosphorylation of p53 serine 15” value in data set [4] was “highly phosphorylated”. Besides, the “chemosensitization (clonal survival)” value in data set [5] (GMA32, 200 nM nocodazole, 100 nM navelbine (vinorelbine) or 200 nM taxol (paclitaxel)) was “chemosensitization was also observed”. Moreover, the “radiosensitization (clonal survival)” value in data set [5] (GMA32, 4 Gy irradiation) is on record as “radiosensitization to 4 Gy irradiation was observed”.
As for “Dbait32H-FITC: Dbait32H labelled via a T tagged with fluorescein (DNA ACGCACGGGTGTTGGGTCGTTTGTTCGGATCT; DNA, backbone not given here; fluorescein on a T, hairpin, hexaethyleneglycol loop, phosphorothioate blunt end, further chemistry not fully specified)”, in data set [6], the “persistence of DSB sites (γ-H2AX foci)” value is listed as “DSB sites persisted”. In addition, the “distribution in tumor tissues” value in data set [7] is recorded as “heterogeneously disseminated in tumor tissues; also recorded: preferential nucleus localization”.
